# Test results published in patent publication US9738655B2, “Tetrahydroisoquinolines containing substituted azoles as factor XIa inhibitors” (BRISTOL-MYERS SQUIBB COMPANY, priority 2013, dated 2017).
# Counter-ions that a name gives are not always drawn.
# Molecular target: purified human plasma kallikrein (Homo sapiens (Human), UniProt P03952)
# Assay: Plasma kallikrein enzyme inhibition assay (chromogenic substrate S-2302)
# Format: biochemical
# Settings: measured at 25° C. (no asterisk)
# Protocol: The effectiveness of compounds of the present invention as inhibitors of the coagulation Factors XIa, VIIa, IXa, Xa, XIIa, plasma kallikrein or thrombin, can be determined using a relevant purified serine protease, respectively, and an appropriate synthetic substrate. The rate of hydrolysis of the chromogenic or fluorogenic substrate by the relevant serine protease was measured both in the absence and presence of compounds of the present invention. […] A decrease in the rate of absorbance or fluorescence change in the presence of inhibitor is indicative of enzyme inhibition. […] The results of this assay are expressed as the inhibitory constant, Ki.
# Values of Ki were determined by allowing the protease to react with the substrate in the presence of the inhibitor.
# The following relationships were used to calculate Ki values: (Vmax*S)/(Km+S); (vo−vs)/vs=I/(Ki(1+S/Km)) for a competitive inhibitor with one binding site; or vs/vo=A+((B−A)/1+((IC50/(I)n))); and Ki−IC50/((1+S/Km) for a competitive inhibitor where:
# Chain of purified human plasma kallikrein (P03952 391-638): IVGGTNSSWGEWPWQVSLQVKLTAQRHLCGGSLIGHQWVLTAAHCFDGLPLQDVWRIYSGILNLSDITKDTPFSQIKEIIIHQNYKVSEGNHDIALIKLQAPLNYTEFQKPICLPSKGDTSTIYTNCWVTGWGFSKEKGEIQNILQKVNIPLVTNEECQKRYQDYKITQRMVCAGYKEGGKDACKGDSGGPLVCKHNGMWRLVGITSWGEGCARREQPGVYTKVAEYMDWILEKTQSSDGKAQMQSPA
# Chain of purified human plasma kallikrein (P03952 20-390 partner): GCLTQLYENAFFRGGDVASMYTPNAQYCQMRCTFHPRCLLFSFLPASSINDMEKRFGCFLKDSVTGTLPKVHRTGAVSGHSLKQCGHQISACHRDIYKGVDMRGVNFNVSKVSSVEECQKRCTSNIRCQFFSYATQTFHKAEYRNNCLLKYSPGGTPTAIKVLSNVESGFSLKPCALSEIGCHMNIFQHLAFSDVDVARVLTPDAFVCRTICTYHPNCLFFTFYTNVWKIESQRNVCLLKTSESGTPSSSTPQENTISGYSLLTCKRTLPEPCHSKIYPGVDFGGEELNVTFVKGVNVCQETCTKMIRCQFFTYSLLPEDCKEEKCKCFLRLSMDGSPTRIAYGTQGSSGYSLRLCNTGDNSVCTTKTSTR
row,Ki [nM],Structure (SMILES)
1,186,"O=C(O)c1ccc(NC(=O)C2c3cccc(N4CCOCC4)c3CCN2C(=O)[C@H]2CC(c3cccc(Cl)c3F)=NO2)cc1 (stereo in doubt) [Example 296, 4-((S)-2-((R)-3-(3-chloro-2-fluorophenyl)-4,5-dihydroisoxazole-5-carbonyl)-5-morpholino-1,2,3,4-tetrahydroisoquinoline-1-carboxamido)benzoic acid, TFA salt]"
2,6.38,"O=C(O)c1ccc(NC(=O)[C@@H]2c3ccccc3CCN2C(=O)[C@H]2CC(c3cccc(Cl)c3F)=NO2)cc1 [Example 4, 4-((S)-2-((R)-3-(3-Chloro-2-fluorophenyl)-4,5-dihydroisoxazole-5-carbonyl)-1,2,3,4-tetrahydroisoquinoline-1-carboxamido)benzoic acid]"
3,1380,"O=C(O)c1ccc(NC(=O)[C@H]2c3ccccc3CCN2C(=O)[C@H]2CC(c3cccc(Cl)c3F)=NO2)cc1 [Example 5, 4-((R)-2-((R)-3-(3-Chloro-2-fluorophenyl)-4,5-dihydroisoxazole-5-carbonyl)-1,2,3,4-tetrahydroisoquinoline-1-carboxamido)benzoic acid]"
4,1.51,"CNC(=O)c1ccc(-c2cccc3c2CCN(C(=O)[C@H]2CC(c4cccc(Cl)c4F)=NO2)[C@@H]3C(=O)Nc2ccc(C(=O)O)cc2)cn1 [Example 19, 4-((S)-2-((R)-3-(3-Chloro-2-fluorophenyl)-4,5-dihydroisoxazole-5-carbonyl)-5-(6-(methylcarbamoyl)pyridin-3-yl)-1,2,3,4-tetrahydroisoquinoline-1-carboxamido)benzoic acid, TFA salt]"
5,840,"CNC(=O)c1ccc(-c2cccc3c2CCN(C(=O)[C@H]2CC(c4cccc(Cl)c4F)=NO2)[C@H]3C(=O)Nc2ccc(C(=O)O)cc2)cn1 [Example 20, 4-((R)-2-((R)-3-(3-Chloro-2-fluorophenyl)-4,5-dihydroisoxazole-5-carbonyl)-5-(6-(methylcarbamoyl)pyridin-3-yl)-1,2,3,4-tetrahydroisoquinoline-1-carboxamido)benzoic acid, TFA salt]"

# Same assay, conditions: measured at 25° C. (no asterisk); TFA
row,Ki [nM],Structure (SMILES)
1,31.7,"COC1CCN(c2cccc3c2CCN(C(=O)C2CC(c4cccc(Cl)c4F)=NO2)C3C(=O)Nc2ccc(C(=O)O)cc2)CC1 (single isomer, unassigned) [Example 305, 4-(2-(3-(3-chloro-2-fluorophenyl)-4,5-dihydroisoxazole-5-carbonyl)-5-(4-methoxypiperidin-1-yl)-1,2,3,4-tetrahydroisoquinoline-1-carboxamido)benzoic acid, TFA]"

# Same assay, conditions: measured at 25° C. (no asterisk); TFA salt
row,Ki [nM],Structure (SMILES)
1,1960,"COC1CCN(c2cccc3c2CCN(C(=O)C2CC(c4cccc(Cl)c4F)=NO2)C3C(=O)Nc2ccc(C(=O)O)cc2)CC1 (single isomer, unassigned) [Example 303, 4-(2-(3-(3-chloro-2-fluorophenyl)-4,5-dihydroisoxazole-5-carbonyl)-5-(4-methoxypiperidin-1-yl)-1,2,3,4-tetrahydroisoquinoline-1-carboxamido)benzoic acid, TFA salt]"
2,232,"COC1CCN(c2cccc3c2CCN(C(=O)C2CC(c4cccc(Cl)c4F)=NO2)C3C(=O)Nc2ccc(C(=O)O)cc2)CC1 (single isomer, unassigned) [Example 304, 4-(2-(3-(3-chloro-2-fluorophenyl)-4,5-dihydroisoxazole-5-carbonyl)-5-(4-methoxypiperidin-1-yl)-1,2,3,4-tetrahydroisoquinoline-1-carboxamido)benzoic acid, TFA salt]"

# Same assay, conditions: measured at 37° C. (*)
row,Ki [nM],Structure (SMILES)
1,9.6,"O=C(O)c1ccc(NC(=O)[C@@H]2c3cccc(-c4cncc(F)c4)c3CCN2C(=O)[C@H]2CC(c3cccc(Cl)c3F)=NO2)cc1 [Example 21, 4-((S)-2-((R)-3-(3-Chloro-2-fluorophenyl)-4,5-dihydroisoxazole-5-carbonyl)-5-(5-fluoropyridin-3-yl)-1,2,3,4-tetrahydroisoquinoline-1-carboxamido)benzoic acid, TFA salt]"

# Molecular target: purified human Factor XIa (Homo sapiens (Human), UniProt P03951)
# Assay: Factor XIa enzyme inhibition assay (chromogenic substrate S-2366)
# Settings: not given
# Chain of purified human Factor XIa (P03951 388-625): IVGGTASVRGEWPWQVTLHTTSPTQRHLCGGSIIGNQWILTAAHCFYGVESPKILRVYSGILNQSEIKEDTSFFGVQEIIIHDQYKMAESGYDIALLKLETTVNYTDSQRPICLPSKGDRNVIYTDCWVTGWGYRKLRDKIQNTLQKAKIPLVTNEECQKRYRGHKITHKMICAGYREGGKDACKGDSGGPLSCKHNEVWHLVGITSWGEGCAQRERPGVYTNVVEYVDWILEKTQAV
# Chain of purified human Factor XIa (P03951 19-387 partner): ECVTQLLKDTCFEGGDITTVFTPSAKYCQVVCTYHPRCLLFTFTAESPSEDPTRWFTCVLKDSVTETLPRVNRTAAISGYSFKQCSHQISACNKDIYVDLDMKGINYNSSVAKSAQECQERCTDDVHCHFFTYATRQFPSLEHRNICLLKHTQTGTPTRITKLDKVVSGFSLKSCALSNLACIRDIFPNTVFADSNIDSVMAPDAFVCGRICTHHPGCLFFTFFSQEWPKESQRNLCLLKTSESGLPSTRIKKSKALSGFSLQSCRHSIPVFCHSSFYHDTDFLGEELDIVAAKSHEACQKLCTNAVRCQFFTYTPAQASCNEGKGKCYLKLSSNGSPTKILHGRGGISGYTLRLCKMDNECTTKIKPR
row,Ki [nM],Structure (SMILES)
1,5.2,"COc1cccc(-c2cccc3c2CCN(C(=O)c2cn(-c4cccc(Cl)c4F)nn2)C3C(=O)Nc2ccc(C(=O)O)cc2)c1F (centres unmarked) [Example 180, 4-(2-(1-(3-chloro-2-fluorophenyl)-1H-1,2,3-triazole-4-carbonyl)-5-(2-fluoro-3-methoxyphenyl)-1,2,3,4-tetrahydroisoquinoline-1-carboxamido)benzoic acid]"

# Same assay, conditions: read-out: Factor XIa Ki; measured at 25° C.
row,Ki [nM],Structure (SMILES)
1,< 5,"O=C(O)c1ccc(NC(=O)C2c3cccc(-c4cnc5[nH]ccc5c4)c3CCN2C(=O)c2cn(-c3cccc(Cl)c3F)nn2)cc1 (centres unmarked) [Example 181, 4-(2-(1-(3-chloro-2-fluorophenyl)-1H-1,2,3-triazole-4-carbonyl)-5-(1H-pyrrolo[2,3-b]pyridin-5-yl)-1,2,3,4-tetrahydroisoquinoline-1-carboxamido)benzoic acid, TFA salt]"
2,< 5,"N#Cc1ccc(-c2cccc3c2CCN(C(=O)c2cn(-c4cccc(Cl)c4F)nn2)C3C(=O)Nc2ccc(C(=O)O)cc2)cn1 (centres unmarked) [Example 182, 4-(2-(1-(3-chloro-2-fluorophenyl)-1H-1,2,3-triazole-4-carbonyl)-5-(6-cyanopyridin-3-yl)-1,2,3,4-tetrahydroisoquinoline-1-carboxamido)benzoic acid, TFA salt]"
3,< 5,"CN(C)c1ncc(-c2cccc3c2CCN(C(=O)c2cn(-c4cccc(Cl)c4F)nn2)C3C(=O)Nc2ccc(C(=O)O)cc2)cn1 (centres unmarked) [Example 183, 4-(2-(1-(3-chloro-2-fluorophenyl)-1H-1,2,3-triazole-4-carbonyl)-5-(2-(dimethylamino)pyrimidin-5-yl)-1,2,3,4-tetrahydroisoquinoline-1-carboxamido)benzoic acid]"
4,< 5,"O=C(O)c1ccc(NC(=O)C2c3cccc(-c4ccc(F)c(C(=O)N5CCCC5)c4)c3CCN2C(=O)c2cn(-c3cccc(Cl)c3F)nn2)cc1 (centres unmarked) [Example 184, 4-(2-(1-(3-chloro-2-fluorophenyl)-1H-1,2,3-triazole-4-carbonyl)-5-(4-fluoro-3-(pyrrolidine-1-carbonyl)phenyl)-1,2,3,4-tetrahydroisoquinoline-1-carboxamido)benzoic acid]"
5,< 5,"O=C(O)c1ccc(NC(=O)C2c3cccc(-c4ccncc4)c3CCN2C(=O)c2cn(-c3cccc(Cl)c3F)nn2)cc1 (centres unmarked) [Example 186, 4-(2-(1-(3-chloro-2-fluorophenyl)-1H-1,2,3-triazole-4-carbonyl)-5-(pyridin-4-yl)-1,2,3,4-tetrahydroisoquinoline-1-carboxamido)benzoic acid, TFA salt]"
6,< 5,"O=C(O)c1ccc(NC(=O)C2c3cccc(C4=CCNCC4)c3CCN2C(=O)c2cn(-c3cccc(Cl)c3F)nn2)cc1 (centres unmarked) [Example 187, 4-(2-(1-(3-chloro-2-fluorophenyl)-1H-1,2,3-triazole-4-carbonyl)-5-(1,2,3,6-tetrahydropyridin-4-yl)-1,2,3,4-tetrahydroisoquinoline-1-carboxamido)benzoic acid]"
7,< 5,"NC(=O)Cc1cccc(-c2cccc3c2CCN(C(=O)c2cn(-c4cccc(Cl)c4F)nn2)C3C(=O)Nc2ccc(C(=O)O)cc2)c1 (centres unmarked) [Example 188, 4-(5-(3-(2-amino-2-oxoethyl)phenyl)-2-(1-(3-chloro-2-fluorophenyl)-1H-1,2,3-triazole-4-carbonyl)-1,2,3,4-tetrahydroisoquinoline-1-carboxamido)benzoic acid]"
8,< 5,"O=C(O)c1ccc(NC(=O)C2c3cccc(N4CCC(N5CCCC5)CC4)c3CCN2C(=O)c2cn(-c3cccc(Cl)c3F)nn2)cc1 (centres unmarked) [Example 210, 4-(2-(1-(3-chloro-2-fluorophenyl)-1H-1,2,3-triazole-4-carbonyl)-5-(4-(pyrrolidin-1-yl)piperidin-1-yl)-1,2,3,4-tetrahydroisoquinoline-1-carboxamido)benzoic acid, 2 TFA salt]"
9,< 5,"O=C(O)c1ccc(NC(=O)[C@@H]2c3cccc(N4CCN(C5COC5)CC4)c3CCN2C(=O)[C@H]2CC(c3cccc(Cl)c3F)=NO2)cc1 [Example 227, 4-((S)-2-((R)-3-(3-Chloro-2-fluorophenyl)-4,5-dihydroisoxazole-5-carbonyl)-5-(4-(oxetan-3-yl)piperazin-1-yl)-1,2,3,4-tetrahydroisoquinoline-1-carboxamido)benzoic acid, 2 TFA salt]"
10,< 5,"O=C(O)c1ccc(NC(=O)[C@H]2c3cccc(N4CCN(C5COC5)CC4)c3CCN2C(=O)[C@H]2CC(c3cccc(Cl)c3F)=NO2)cc1 [Example 228, 4-((R)-2-((R)-3-(3-Chloro-2-fluorophenyl)-4,5-dihydroisoxazole-5-carbonyl)-5-(4-(oxetan-3-yl)piperazin-1-yl)-1,2,3,4-tetrahydroisoquinoline-1-carboxamido)benzoic acid, 2 TFA salt]"
11,< 5,"O=C(O)c1ccc(NC(=O)[C@@H]2c3cccc(N4CCOCC4=O)c3CCN2C(=O)[C@H]2CC(c3cccc(Cl)c3F)=NO2)cc1 [Example 289, 4-((S)-2-((R)-3-(3-chloro-2-fluorophenyl)-4,5-dihydroisoxazole-5-carbonyl)-5-(3-oxomorpholino)-1,2,3,4-tetrahydroisoquinoline-1-carboxamido)benzoic acid,]"

# Same assay, conditions: read-out: Factor XIa Ki; measured at 25° C.; TFA salt
row,Ki [nM],Structure (SMILES)
1,127,"COC1CCN(c2cccc3c2CCN(C(=O)C2CCN(c4cccc(Cl)c4)C2)C3C(=O)Nc2ccc(C(=O)O)cc2)CC1 (centres unmarked) [Example 258, 4-(2-(1-(3-chlorophenyl)pyrrolidine-3-carbonyl)-5-(4-methoxypiperidin-1-yl)-1,2,3,4-tetrahydroisoquinoline-1-carboxamido)benzoic acid, TFA salt]"
2,948,"COC1CCN(c2cccc3c2CCN(C(=O)C2CCN(c4cccc(Cl)c4)C2)C3C(=O)Nc2ccc(C(=O)O)cc2)CC1 (centres unmarked) [Example 261, 4-(2-(1-(3-chlorophenyl)pyrrolidine-3-carbonyl)-5-(4-methoxypiperidin-1-yl)-1,2,3,4-tetrahydroisoquinoline-1-carboxamido)benzoic acid, TFA salt]"
